The values that follow come from patent US4479954A, “Piperazine substituted carboxamide derivatives, compositions and method of use” (Eisai Co., Ltd., priority 1981, dated 1984).

For one series, the system named is sub-diabetic rats. As to the kind of experiment: Improvement of glucose tolerance in STZ sub-diabetic rats (Experiment 1). The format is in vivo, Male Sprague-Dawley rats. To be noted: for inhibition in vivo at 10 mg/kg / Improvement of glucose tolerance at 10 mg/kg: Rattus norvegicus; for inhibition in vivo at 10 mg/kg: 10 mg/kg oral, STZ sub-diabetic rats, relative to control group as 100%; for Improvement of glucose tolerance at 10 mg/kg: po.

The test system of another series is DDY strain mice. As to the kind of experiment: Acute Toxicity Test, oral, mice (Experiment 2). The format is in vivo. The note with it: observation within one week; for Acute toxicity, number of dead cases / number of cases tested, 500 mg/kg: 500 mg/kg oral; for Acute toxicity, number of dead cases / number of cases tested, 1,000 mg/kg: 1,000 mg/kg oral. Here is the method:
More specifically, when an experiment was carried out in DDY strain mice, there was no case of death at a dosage of 1,000 mg/kg, as shown below.
DDY strain mice (weighing 20-25 g) maintained on mice chow and water adlibitum in a constant temperature room (22°-24° C.) for at least a week were used.
An acute toxicity test was carried out by oral administration of the compounds at two dosage levels of 500 mg/kg and 1,000 mg/kg. Observation of dead cases were made within one week. In table 2, the denominator of each value indicates the number of cases tested and the numerator indicates the number of dead cases. Compounds A, B, C, D, E and F correspond to Compoounds A-F in Experiment 1 respectively.

[1] abbreviates: 1 hr. after glucose load (3 g/kg i.p.), read-out: Improvement percent of glucose tolerance, 1 hr.
Setting [2] is: 2 hrs. after glucose load (3 g/kg i.p.), read-out: Improvement percent of glucose tolerance, 2 hrs.
Where [3] appears, read: 3 hrs. after glucose load (3 g/kg i.p.), read-out: Improvement percent of glucose tolerance, 3 hrs.
[4] abbreviates: 1 h, read-out: Improvement percent of glucose tolerance, 1 hr.
Setting [5] is: 2 h, read-out: Improvement percent of glucose tolerance, 2 hrs.
Setting [6] is: 3 h, read-out: Improvement percent of glucose tolerance, 3 hrs.

Counter-ions that a name gives are not always drawn. Like-named read-outs stand apart in the source and are kept apart here.

Experimental for sub-diabetic rats: Male Sprague-Dawley rats (weighing 300-350 g) were maintained on rat chow and water adlibitum in a constant temperature room (22°-24° C.) for at least a week prior to use in studies. Sub-diabetic rats*^1 were obtained by intrevenous injection of 20 mg/kg of streptozotocin (STZ). The compounds were orally administered in 5% gum arabic suspension in sub-diabetic rats. 3 g/kg of glucose was administered intraperitoneally an hour later. Blood samples were taken from the tail vein, and the blood sugar was measured by the anthrone method [Ui.
*1: STZ sub-diabetic rats are obtained by administering a low dose of streptozotocin (20 mg/kg) dissolved in physiological saline containing 1 mM citrate buffer (pH 4.5) into the superficial cutaneous vein.
*^2 The improvement percent of glucose tolerance means a percentage o
blood sugar of the group treated with the test compounds each after
glucose load (1, 2 and 3 hours after) relative to that of the control

With `CCCCCC(=O)OC(CN1CCN(c2ccccn2)CC1)CN1C(=O)C2CC=CCC2C1=O` (stereo not drawn) [Compound C, N-[2-n-Caproyloxy-3-{4-(2-pyridyl)piperazin-1-yl}propyl]cis-cyclohex-4-ene-1,2-dicarboximide dimaleate], the inhibition in vivo at 10 mg/kg in the series on sub-diabetic rats (setting [1]) is 7%; with sub-diabetic rats (setting [2]), 17%; in the series with sub-diabetic rats (setting [3]), 23%. Also, in the series on DDY strain mice, the “Acute toxicity, number of dead cases / number of cases tested, 500 mg/kg” value is listed as 0/5. Also, in the series with DDY strain mice, the “Acute toxicity, number of dead cases / number of cases tested, 1,000 mg/kg” value is listed as 0/5.

Regarding `CCC(=O)OC(CN1CCN(c2ccccn2)CC1)CN1C(=O)c2ccccc2C1=O` (stereo not drawn) [Compound I, N-[2-Propionyloxy-3-{4-(2-pyridyl)piperazin-1-yl}propyl]phthalimide maleate], the inhibition in vivo at 10 mg/kg was 14% with sub-diabetic rats (setting [1]), 26% with sub-diabetic rats (setting [2]) and 31% in the series on sub-diabetic rats (setting [3]).

As for `O=C(OC(CN1CCN(c2ccccn2)CC1)CN1C(=O)c2ccccc2C1=O)c1cccnc1` (stereo not drawn) [Compound H, N-[2-Nicotinoyloxy-3-{4-(2-pyridyl)piperazin-1-yl}propyl]phthalimide maleate], the values for the inhibition in vivo at 10 mg/kg with sub-diabetic rats (setting [1]), with sub-diabetic rats (setting [2]) and in the series with sub-diabetic rats (setting [3]) were 19%, 23% and 27%, respectively.

Regarding `O=C(O)/C=C\C(=O)O.O=C(OC(CN1CCN(c2ccccn2)CC1)CN1C(=O)CCC1=O)C1CCCCC1` (stereo not drawn) [Compound A, N-[2-Cyclohexylcarbonyloxy-3-{4-(2-pyridyl)piperazin-1-yl}propyl]succinimide maleate], the Improvement of glucose tolerance at 10 mg/kg with sub-diabetic rats (setting [4]) worked out at 12%; with sub-diabetic rats (setting [5]) it was 25%; with sub-diabetic rats (setting [6]), 19%. The “Acute toxicity, number of dead cases / number of cases tested, 500 mg/kg” value in the series on DDY strain mice is reported as 0/5. The “Acute toxicity, number of dead cases / number of cases tested, 1,000 mg/kg” value in the series with DDY strain mice is given as 0/5.

Turning to `O=C(O)/C=C\C(=O)O.O=C(OC(CN1CCN(c2ccccn2)CC1)CN1C(=O)[C@H]2CC=CC[C@H]2C1=O)c1cccnc1` (relative stereo) [Compound E, N-[2-Nicotinoyloxy-3-{4-(2-pyridyl)piperazin-1-yl}propyl]cis-cyclohex-4-ene-1,2-dicarboximide maleate], the Improvement of glucose tolerance at 10 mg/kg in the series on sub-diabetic rats (setting [4]) amounted to 11%; in the series on sub-diabetic rats (setting [5]), 20%; in the series with sub-diabetic rats (setting [6]), 9%. The “Acute toxicity, number of dead cases / number of cases tested, 500 mg/kg” value in the series with DDY strain mice was 0/5. In addition, the “Acute toxicity, number of dead cases / number of cases tested, 1,000 mg/kg” value in the series with DDY strain mice is reported as 0/5.

In the case of `CCCCCCCCCCCCCCCC(=O)OC(CN1CCN(c2ccccn2)CC1)CN1C(=O)[C@H]2CC=CC[C@H]2C1=O` (relative stereo) [Compound G, N-[2-Palmitoyloxy-3-{4-(2-pyridyl)piperazin-1-yl}propyl]cis-cyclohex-4-ene-1,2-dicarboximide dimaleate], the results for the inhibition in vivo at 10 mg/kg in the series on sub-diabetic rats (setting [1]), in the series on sub-diabetic rats (setting [2]) and with sub-diabetic rats (setting [3]) were 3%, 15% and 24%, respectively.

As to `O=C(OC(CN1CCN(c2ccccn2)CC1)CN1C(=O)[C@@H]2[C@H](C1=O)[C@@H]1C=C[C@H]2C1)C1CCCCC1` (stereo partly drawn) [Example 7, N-[2-Cyclohexylcarbonyloxy-3-{4-(2-pyridyl)piperazin-1-yl}propyl]-endo-cis-bicyclo[2,2,1]hept-5-ene-2,3-dicarboximide dihydrochloride], the “Improvement percent of glucose tolerance after 1 hour” value in the series on sub-diabetic rats (39 mg/kg, 6 rats, after 1 hour, method similar to Experiment 1) turned out to be 23%. The “Improvement percent of glucose tolerance after 2 hours” value in the series with sub-diabetic rats (39 mg/kg, 6 rats, after 2 hours, method similar to Experiment 1) was found to be 33%. Moreover, in the series with sub-diabetic rats (39 mg/kg, 6 rats, after 3 hours, method similar to Experiment 1), the “Improvement percent of glucose tolerance after 3 hours” value turned out to be 37%.

`O=C(OC(CN1CCN(c2ccccn2)CC1)CN1C(=O)[C@@H]2[C@H](C1=O)[C@@H]1C=C[C@H]2C1)C1CCCCC1` (stereo partly drawn) [Compound F, N-[2-Cyclohexylcarbonyloxy-3-{4-(2-pyridyl)piperazin-1-yl}propyl]endo-cis-bicyclo[2,2,1]hept-5-ene-2,3-dicarboximide dimaleate]: the inhibition in vivo at 10 mg/kg worked out at 14% with sub-diabetic rats (setting [1]), 25% with sub-diabetic rats (setting [2]) and 34% in the series with sub-diabetic rats (setting [3]). In addition, in the series on DDY strain mice, the “Acute toxicity, number of dead cases / number of cases tested, 500 mg/kg” value is listed as 0/5. In addition, the “Acute toxicity, number of dead cases / number of cases tested, 1,000 mg/kg” value in the series with DDY strain mice is 0/5.

For `CCCCCC/C=C/C(=O)OC(CN1CCN(c2ccccn2)CC1)CN1C(=O)[C@H]2CC=CC[C@H]2C1=O.O=C(O)/C=C\C(=O)O.O=C(O)/C=C\C(=O)O` (relative stereo) [Compound D, N-[2-(trans-2-Nonenoyloxy)-3-{4-(2-pyridyl)piperazin-1-yl}propyl]cis-cyclohex-4-ene-1,2-dicarboximide dimaleate], the values for the Improvement of glucose tolerance at 10 mg/kg with sub-diabetic rats (setting [4]), with sub-diabetic rats (setting [5]) and in the series on sub-diabetic rats (setting [6]) were 0%, 13% and 26%, respectively. In addition, the “Acute toxicity, number of dead cases / number of cases tested, 500 mg/kg” value with DDY strain mice is listed as 0/5. Further, the “Acute toxicity, number of dead cases / number of cases tested, 1,000 mg/kg” value in the series on DDY strain mice is given as 0/5.

With `CCCCCC(=O)OC(CN1CCN(C)CC1)CN1C(=O)C2CC=CCC2C1=O` (stereo not drawn) [Compound J, N-{2-n-Caproyloxy-3-(4-methylpiperazin-1-yl)propyl}cis-cyclohex-4-ene-1,2-dicarboximide dimaleate], the inhibition in vivo at 10 mg/kg in the series with sub-diabetic rats (setting [1]) was found to be 0%; in the series with sub-diabetic rats (setting [2]) it was 21%; in the series with sub-diabetic rats (setting [3]) it was 32%.

Consider `CCCCCCCCCC(=O)OC(CN1CCN(c2ccccn2)CC1)CN1C(=O)C2CC=CCC2C1=O` (stereo not drawn) [Compound B, N-[2-n-Decanoyloxy-3-{4-(2-pyridyl)piperazin-1-yl}propyl]cis-cyclohex-4-ene-1,2-dicarboximide dimaleater], for which the inhibition in vivo at 10 mg/kg in the series on sub-diabetic rats (setting [1]) amounted to 15%; with sub-diabetic rats (setting [2]), 23%; with sub-diabetic rats (setting [3]) it was 26%. Moreover, the “Acute toxicity, number of dead cases / number of cases tested, 500 mg/kg” value in the series on DDY strain mice is 0/5. For the same compound, the “Acute toxicity, number of dead cases / number of cases tested, 1,000 mg/kg” value with DDY strain mice is on record as 0/5.
